Entries after “also recorded” stand apart in the source; their conditions may differ.
What was measured:
hTRPA1 [1] = target: T1, hTRPA1 (Homo sapiens, UniProt O75762); assay: Evaluation of hTRPA1 action using Ca2+ imaging (Fura-2/AM) in cell lines stably expressing hTRPA1; assay type: cell-based; conditions: for calcium release in hTRPA1 stably expressing cell line: 50 μM, FIG. 2; for activity inhibition by ruthenium red (RR): treatment with cationic channel blocker RR
T1 construct: The hTRPA1-expressing gene (coding region) was cloned; expressed in transfected cells
T1 sequence (O75762 whole entry): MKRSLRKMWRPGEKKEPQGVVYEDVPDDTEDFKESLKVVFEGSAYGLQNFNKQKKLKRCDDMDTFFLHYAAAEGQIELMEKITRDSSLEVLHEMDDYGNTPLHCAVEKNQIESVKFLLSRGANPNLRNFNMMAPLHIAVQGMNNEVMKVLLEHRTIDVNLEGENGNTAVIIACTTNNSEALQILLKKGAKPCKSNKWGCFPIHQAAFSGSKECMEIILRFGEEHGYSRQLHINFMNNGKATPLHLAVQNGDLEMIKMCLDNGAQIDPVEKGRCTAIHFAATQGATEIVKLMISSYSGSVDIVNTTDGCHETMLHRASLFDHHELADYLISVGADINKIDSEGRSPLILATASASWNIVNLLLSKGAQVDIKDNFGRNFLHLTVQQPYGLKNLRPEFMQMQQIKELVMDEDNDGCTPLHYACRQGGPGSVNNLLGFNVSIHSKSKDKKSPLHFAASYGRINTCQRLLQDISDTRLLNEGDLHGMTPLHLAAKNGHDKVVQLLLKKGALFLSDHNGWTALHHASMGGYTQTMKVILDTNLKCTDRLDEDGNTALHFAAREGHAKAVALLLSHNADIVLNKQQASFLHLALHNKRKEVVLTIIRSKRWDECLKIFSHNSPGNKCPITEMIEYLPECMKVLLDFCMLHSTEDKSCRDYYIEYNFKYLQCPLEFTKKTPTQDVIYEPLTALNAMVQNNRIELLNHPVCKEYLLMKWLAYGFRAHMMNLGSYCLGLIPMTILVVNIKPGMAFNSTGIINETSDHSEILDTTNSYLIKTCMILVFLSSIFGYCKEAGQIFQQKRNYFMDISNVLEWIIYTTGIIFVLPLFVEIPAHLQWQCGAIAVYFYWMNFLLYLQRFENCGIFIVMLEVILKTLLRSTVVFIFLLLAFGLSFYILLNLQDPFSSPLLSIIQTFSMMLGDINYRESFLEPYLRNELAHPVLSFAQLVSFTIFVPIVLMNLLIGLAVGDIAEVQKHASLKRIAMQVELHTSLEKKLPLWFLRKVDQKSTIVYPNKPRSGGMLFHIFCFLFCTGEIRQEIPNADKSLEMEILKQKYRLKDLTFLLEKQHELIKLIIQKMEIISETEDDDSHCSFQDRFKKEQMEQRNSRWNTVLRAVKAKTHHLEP
Protocol: (§1) The hTRPA1-expressing gene (coding region) was cloned according to the manufacturer's protocol for the pcDNA5/FRT Complete System (Invitrogen). In order to verify whether the hTRPA1 gene was accurately inserted into the vector, sequencing was carried out using the ABI 130 or 310 DNA generatic analyzer (Applied Biosystems), and the constructed vector and Pog44 were transduced into Flin-in 293 cells using Lipofectamine 2000 (Invitrogen). After 24 hours, the cells were optionally treated with 100 μg/ml of hygromycin-B (Invitrogen), following by further culturing for 2-3 weeks. Then, only antibiotic-resistant cells were collected, and used for measuring cellular responses of hTRPA1, followed by repeated culturing. The cells were cultured in Dulbecco's modified Eagle's medium (DMEM) supplemented with 10% fetal bovine serum.
The Ca^2+ imaging was conducted to measure hTRPA1 activation. Fura-2/AM (Molecular Probes, USA) was used as a marker for measuring the change in the intracellular calcium concentration. At 20-26 hours before the analysis, cell lines stably expressing hTRPA1 were dispensed in a 96-well plate. The cells were cultured in a solution added with Fura-2/AM (5 μM) at 27° C. for 30 minutes. The cells were washed with an assay buffer (140 mM NaCl, 10 mM HEPES, 2 mM CaCl2.2H2O, 2 mM EGTA, 1 mM MgCl2.6H2O, 10 mM glucose, and 5 mM KCl), added with 100 μL of the assay buffer, and left at room temperature for 15 minutes. The Fura-2/AM-loaded cells were placed on a microscope, and the fluorescence absorbance was measured between 340 nm and 380 nm. The images were recorded at 3-sec intervals, and the change in the intracellular calcium concentration was analyzed using MetalFluor software (Molecular Devices, Sunnyvale, Calif., USA).

[2] = Sensory test for pungent flavor; assay type: in vivo; conditions: 1 μM solution
Protocol: The sensory test was conducted for the pungent flavor due to coniferyl alcohol. A solution of 1 μM coniferyl alcohol was used, and the sensitivity of the pungent taste was marked in a 15-point scale (n=6).

NCI-H716 cells = assay: GLP-1 secretion effect in NCI-H716 cells (GLP-1 active ELISA); assay type: cell-based, human; conditions: 1 hour
From the text: Glucagon-like peptide-1 (GLP-1), which is the hormone secreted from the gut, is involved in an anti-diabetic action by amplifying glucose-stimulated insulin secretion and suppressing the beta-cell death. GLP-1 is also involved in an anti-obesity action by decreasing the rate of gastric emptying and suppressing the appetite. Therefore, a GLP-1 secreting material can be expected to have anti-diabetic and anti-obesity effects.
The human-derived cell line NCI-H716 cells were purchased from the American Type Culture Collection (ATCC, Manassas, Va.). This cell line corresponds to suspension cells isolated from the large-intestinal Adenocarcinoma of an adult, and has been known as a cell line that mainly secrets GLP-1. For the maintenance of proliferation and culture of the cell line, the cells were cultured in RPMI 1640 medium supplemented with 10% fetal bovine serum (FBS), 2 mM L-glutamine, 100 IU/ml penicillin, and 100 μg/ml streptomycin, and for the adherence and differentiation of cells, the Matrigel matrix (Becton Dickinson and Co., Bedford, Mass.) was coated on plates and the cells were cultured in high-glucose DMEM supplemented with 10% FBS, 2 mm L-glutamine, 100 IU/ml penicillin, and 100 μg/ml streptomycin.
The NCI-H716 cell line was cultured at 2×10^5 cells/mL in a 96-well culture plate coated with Matrigel for 3 days. On the day of the experiment, the cells were washed with 1× phosphated buffered saline (PBS). For the control group, Krebs-Ringer bicarbonate buffer (KRB, 128.8 mmol/l NaCl, 4.8 mmol/l KCl, 1.2 mmol/l KH2PO4, 1.2 mmol/l MgSO4, 2.5 mmol/l CaCl2, 5 mmol/l NaHCO3, and 10 mmol/l HEPES, 0.2% BSA, pH 7.4) was used. For the analysis, the samples of different concentrations were added thereto, followed by incubation at 37° C. for 1 hour. After the incubation, the supernatant was taken (100 μL) for GLP-1 analysis, and analyzed by using the GLP-1 active ELISA kit (EGLP-35K, Millipore) according to the manufacturer's manual. The concentration of GLP-1 was calculated based on the supplied GLP-1 standard material (pmol).

[3] = Lacrimation test (solution sprayed onto eyes of participants); assay type: in vivo; conditions: 1 μM solution sprayed onto eyes
Protocol: The lacrimation test was conducted on the coniferyl alcohol. A solution of 1 μM coniferyl alcohol was used, and experiment participants were asked to write down their feeling when the solution was sprayed onto their eyes.

hTRPA1 [4] = target: T1, hTRPA1; assay: Measurement of intracellular Ca2+ concentration using cell-based analysis (FlexStation, Fluo-4-AM)
Protocol: as §1
The intercellular Ca^2+ concentration was measured by using FlexStation™ (Molecular Devices, Sunnyvale, Calif., USA). Cells were dispensed at 24 hours before the analysis, and treated with 5 μM Fluo-4-AM (Molecular Probes, Eugene, Oreg., USA) as a marker for measuring the change in the intracellular calcium concentration, followed by reaction at 27° C. for 30 minutes. After that, the cells were washed with an assay buffer (140 mM NaCl, 10 mM HEPES, 2 mM CaCl22H2O, 2 mM EGTA, 1 mM MgCl26H2o, 10 mM glucose, and 5 mM KCl), added with 100 μL of the assay buffer, and left at room temperature for 15 minutes. Then, each of extracts and compositions was treated and used to measure fluorescence absorbance at 486 nm (F486) and 516 nm (F516). The change in intercellular calcium concentration was represented as A relative fluorescent unit (RFU), and was analyzed by using the Softmax software (Molecular devices, USA).

Row | SMILES | calcium response / hTRPA1 action in hTRPA1-expressed cells (Ca2+ imaging) (hTRPA1 [1]) | calcium release in hTRPA1 stably expressing cell line (hTRPA1 [1]) | activity inhibition by ruthenium red (RR) (hTRPA1 [1]) | taste description in sensory test [2] | intensity of pungent tastes (spicy, tingle, and tangy tastes) ([2]; 15-point scale, n=6) | GLP-1 secretion as compared with the untreated control group (NCI-H716 cells; 3 μM) [times] | GLP-1 secretion as compared with the untreated control group (NCI-H716 cells; 10 μM or higher) [times] | ocular tears or irritation due to spray [3] | EC50 (hTRPA1 [4]; FIG. 29) [µM] | Ca2+ response inhibited by TRPA1 antagonist HC-030031 (hTRPA1 [4]; HC-030031 100 μM) | Ca2+ response inhibited by cationic channel blocker RR (hTRPA1 [4]; RR 30 μM) | GLP-1 secretion as compared with the untreated control group (NCI-H716 cells; 500 μM) [times] | activity inhibition by HC-030031 (hTRPA1 [1]; treatment with TRPA1 antagonist HC-030031)
1 | O=CC=Cc1ccccc1 [CALD, cinnamaldehyde] | all cells were activated | calcium was released | most activities were inhibited | – | – | – | – | – | – | – | – | – | –
2 | COc1cc(/C=C/CO)ccc1O [coniferyl alcohol, Coniferyl alcohol] | specifically acted on hTRPA1; also recorded: increased the intercellular Ca^2+ influx in a time-dependent manner | – | completely blocked | the remaining taste was stronger than the first taste and the tongue burns or has a pain | 11.83±1.6 | 3 | ≥ 4 | ocular pain (tingling, stinging, and dizziness) was observed | 654 | inhibited; also recorded: significantly reduced | inhibited | – | –
3 | O=C(/C=C/c1ccc(O)c(O)c1)O[C@@H]1C[C@](O)(C(=O)O)C[C@@H](O)[C@H]1O [chlorogenic acid] | no effects | – | – | – | – | – | – | – | – | – | – | – | –
4 | C=CCN=C=S [AITC, allyl isothiocyanate] | all cells were activated | calcium was released | most activities were inhibited | – | – | – | – | – | – | – | – | 3.9 | not inhibited

From patent US9301989B2, “hTRPA1-activating composition and use thereof” (KOREA FOOD RESEARCH INSTITUTE, priority 2011, dated 2016)
